{"source": "patent US6683083B1", "about": "“Anticancer agents” (priority 1999, dated 2004)", "key": {"various cancers": {"system": "various cancers", "test": "Overall carcinostatic effect, results of examples 1 to 3", "settings": "overall statement"}, "[1]": {"system": "MCF-7 (human mammary cancer cell line)", "test": "MTT assay, in vitro antitumor effect", "format": "cell-based", "settings": "MCF-7, 96 hours incubation, average±error range of triple culture tests, read-out: amount of compound 1 required to achieve IC50", "text": "(§1) (2) Verification of In Vitro Antitumor Effects on Various Human Cancer Cell Lines According to the MTT Assay Method.\n(§2) Each single cell of a human non-small-cell lung cancer cell line PC-14, a human non-small-cell lung cancer cell line SBC-3, a human […] cell line MCF-7, a human non-small-cell ovarian cancer cell line SKOV3, a human leukemia cell line HL60 and a human colon cancer cell line WiDR was obtained by trypsinization or by using a cell scraper in RPMI 1640 medium to prepare a suspension containing 100 cells per 15 μl. The compound 1 as an anticancer agent was dissolved in dimethylsulfoxide and then the solution was added to the suspension to make the concentration of the compound fall within a range between 0.5 and 1 μM, and the resulting suspension was poured into a 96-perforated plate at 150 μl/well. This plate was maintained at a temperature of 37° C. under 5% of carbon dioxide and saturated vapor for 96 hours to incubate the suspension. After incubation, the incubated suspension was combined with 20 μl of MTT (3-(4,5-dimethylthiazol-2-yl)-2,5-diphenyltetrazoliumbromide) reagent dissolved in D-PBS (−) at a concentration of 5 mg/ml, and was further incubated at 37° C. for 4 hours. After the completion of incubation, the entire plate was centrifuged to discharge supernatant. Then, 200 μl of dimethyl sulfoxide was added to dissolve purple formazan which is created from yellow MTT by the action of dehydrogenase lying in mitochondria in the cancer cell, and the amount of the created formazan was determined by reading the absorbance at a wave length ranging from 562 to 630 nm with a multi-plate reader. Given that the average growth rate of a negative control is […] and the average growth rate of a positive control is 100%, a tumor-volume growth curve was plotted, and the concentration of compound 1 required for 50% of human cancer-cell proliferation suppression was calculated.\n(§3) The values in Table 1 indicate each value of the concentration required for 50% of human cancer-cell proliferation suppression from the MTT assay in triple culture tests of independent cancer cells using compound 1 by average±error range (μM)."}, "[2]": {"system": "WiDR (human colon cancer cell line)", "test": "MTT assay, in vitro antitumor effect", "format": "cell-based", "settings": "96 hours incubation, average±error range of triple culture tests, read-out: amount of compound 1 required to achieve IC50", "text": "as §1, §2, §3"}, "[3]": {"system": "HL60 (human leukemia cell line)", "test": "MTT assay, in vitro antitumor effect", "format": "cell-based", "settings": "HL60, 96 hours incubation, average±error range of triple culture tests, read-out: amount of compound 1 required to achieve IC50", "text": "as §1, §2, §3"}, "[4]": {"system": "SBC-3 (human small-cell lung cancer cell line)", "test": "MTT assay, in vitro antitumor effect", "format": "cell-based", "settings": "SBC-3, 96 hours incubation, average±error range of triple culture tests, read-out: amount of compound 1 required to achieve IC50", "text": "as §1, §2, §3"}, "[5]": {"system": "SKOV3 (human ovarian cancer cell line)", "test": "MTT assay, in vitro antitumor effect", "format": "cell-based", "settings": "SKOV3, 96 hours incubation, average±error range of triple culture tests, read-out: amount of compound 1 required to achieve IC50", "text": "as §1, §2, §3"}, "[6]": {"system": "human non-small-cell lung cancer cell line PC-14", "test": "MTT assay, in vitro antitumor effect", "format": "cell-based", "settings": "PC-14, 96 hours incubation, average±error range of triple culture tests, read-out: amount of compound 1 required to achieve IC50", "text": "as §1, §2, §3"}, "[7]": {"test": "Entire body state and weight of tumor-bearing nude mice", "format": "in vivo, female nude mice BALB/c nu/nu", "settings": "3 and 5 mg/kg by tail injection, once a day on 7th, 8th, 10th, 11th days after implantation", "experimental": "For six subjects of the group number 1, the compound 1 was administered by injecting from each tail of the nude mice on each of the 7th, 8th, 10th and 11th days after the implantation, at 3 mg of the compound 1 per kg of weight once a day. For six subjects of the group number 2, the compound 1 was administered by injecting from each tail of the nude mice on each of the 7th, 8th, 10th and 11th days after the implantation, at 5 mg of the compound 1 per kg of weight once a day. The subjects of the group number […] to be the controls were a group having no administration of the compound 1, and neither administration nor treatment of the compound 1 was performed on the controls. […] However, in the result of each tumor volume of the mice, a specific difference was found between the subjects of the group numbers 1 to 3. The measurement of the tumor volumes is shown in the following Table 2, and the average of the tumor volumes in each of the groups is shown in Table 3. In Tables 2 and 3, each size of the tumor volumes after the 2nd day is represented on condition that the size of the tumor volume on the 1st day is 100."}, "fibroblasts NIH3T3": {"system": "fibroblasts NIH3T3", "test": "Fibroblast cell-proliferation suppression (cell count)", "format": "cell-based", "settings": "NIH3T3, 1×10^−6 M and 3×10^−6 M, cell number every 24 hours, FIG. 1", "experimental": "FIG. 1 is a graph showing a cell-proliferation suppressing action against fibroblast of the compound represented by the above general formula [1] and the like shown in Example 2.\nNine plates were prepared for each of control and compound 1 groups each having a concentration of 1×10^−6 M and a compound 1 group having a concentration of 3×10^−6 M (total of 27 plates). The number 4.4×10^5 of fibroblasts NIH3T3 were added to each of the 27 plates, and D-MEM culture solution added with 10% FBS (fetal bovine serum) was added thereto. Each of the controls was incubated with added water corresponding to the added amount of compound 1. The number of cells in 3 plates of each of the groups was measured every 24 hours, and the measured numbers were averaged to provide an average cell number per plate."}, "[8]": {"system": "human non-small-cell lung cancer cell line PC-14", "test": "PC-14 subcutaneous implant in nude mice, tumor volume", "format": "in vivo, female nude mice BALB/c nu/nu", "parameters": "key: relative tumor volume, 1st day = 100; volume = minor axis^2 × major axis", "settings": "1st day = 100"}}, "note": "Values joined by “and” are separate entries in the source; they are usually repeats but may differ in a detail not shown here. Equal values may be shown once.", "data": [{"smiles": "OC(CN1CCN(C(c2ccccc2)c2ccccc2)CC1)CN1CCC(O)(c2ccc(Cl)cc2)CC1", "note": "(stereo not shown) [compound 1, 1-[1-4-(diphenylmethyl)piperazinyl]-3-[1-{4-(4-chlorophenyl)-4-hydroxy}piperidinyl]-2-propanol]", "values": [{"measurement": "carcinostatic effect (results of examples 1 to 3)", "setting": "various cancers", "result": "high carcinostatic effect"}, {"measurement": "IC50", "setting": "[1]", "result": "600 ± 80", "unit": "nM"}, {"measurement": "IC50", "setting": "[2]", "result": "410 ± 30", "unit": "nM"}, {"measurement": "IC50", "setting": "[3]", "result": "1180 ± 50", "unit": "nM"}, {"measurement": "IC50", "setting": "[4]", "result": "460 ± 30", "unit": "nM"}, {"measurement": "IC50", "setting": "[5]", "result": "850 ± 20", "unit": "nM"}, {"measurement": "IC50", "setting": "[6]", "result": "1020 ± 200", "unit": "nM"}, {"measurement": "entire body state and weight of the mice versus control", "setting": "[7]", "result": "substantially no difference"}, {"measurement": "cell-proliferation suppressing action against fibroblast", "setting": "fibroblasts NIH3T3", "result": "effectiveness to proliferative lesions"}, {"measurement": "tumor volume, average (6 mice)", "setting": "[8]; group No. 2 (3 mg/kg tail injection), 2 day", "result": 89.79}, {"measurement": "tumor volume, individual mice", "setting": "[8]; group No. 2 (3 mg/kg tail injection), 2 day, 3 mg/kg", "result": "45.35 and 120.51 and 139.67 and 73.21 and 73.29 and 66.68"}, {"measurement": "tumor volume, average (6 mice)", "setting": "[8]; group No. 2 (3 mg/kg tail injection), 3 day", "result": 67.01}, {"measurement": "tumor volume, individual mice", "setting": "[8]; group No. 2 (3 mg/kg tail injection), 3 day, 3 mg/kg", "result": "20.22 and 98.14 and 85.27 and 52.91 and 62.47 and 83.06"}, {"measurement": "tumor volume, average (6 mice)", "setting": "[8]; group No. 2 (3 mg/kg tail injection), 4 day", "result": 68.38}, {"measurement": "tumor volume, individual mice", "setting": "[8]; group No. 2 (3 mg/kg tail injection), 4 day, 3 mg/kg", "result": "46.17 and 80.18 and 105.01 and 42.19 and 31.02 and 85.73"}, {"measurement": "tumor volume, average (6 mice)", "setting": "[8]; group No. 2 (3 mg/kg tail injection), 5 day", "result": 46.68}, {"measurement": "tumor volume, individual mice", "setting": "[8]; group No. 2 (3 mg/kg tail injection), 5 day, 3 mg/kg", "result": "31.44 and 66.58 and 67.76 and 22.55 and 18.55 and 51.09"}, {"measurement": "tumor volume, average (6 mice)", "setting": "[8]; group No. 2 (3 mg/kg tail injection), 6 day", "result": 47.73}, {"measurement": "tumor volume, individual mice", "setting": "[8]; group No. 2 (3 mg/kg tail injection), 6 day, 3 mg/kg", "result": "30.93 and 122.90 and 55.16 and 0.00 and 10.11 and 51.30"}, {"measurement": "tumor volume, average (6 mice)", "setting": "[8]; group No. 2 (3 mg/kg tail injection), 7 day", "result": 42.99}, {"measurement": "tumor volume, individual mice", "setting": "[8]; group No. 2 (3 mg/kg tail injection), 7 day, 3 mg/kg", "result": "52.68 and 99.04 and 75.58 and 0.00 and 12.98 and 47.68"}, {"measurement": "tumor volume, average (6 mice)", "setting": "[8]; group No. 2 (3 mg/kg tail injection), 8 day", "result": 58.33}, {"measurement": "tumor volume, individual mice", "setting": "[8]; group No. 2 (3 mg/kg tail injection), 8 day, 3 mg/kg", "result": "56.49 and 127.45 and 130.56 and 0.00 and 4.97 and 30.49"}, {"measurement": "tumor volume, average (6 mice)", "setting": "[8]; group No. 3 (5 mg/kg tail injection), 2 day", "result": 78.63}, {"measurement": "tumor volume, individual mice", "setting": "[8]; group No. 3 (5 mg/kg tail injection), 2 day, 5 mg/kg", "result": "55.40 and 63.47 and 93.53 and 68.25 and 90.42 and 80.68"}, {"measurement": "tumor volume, average (6 mice)", "setting": "[8]; group No. 3 (5 mg/kg tail injection), 3 day", "result": 75.11}, {"measurement": "tumor volume, individual mice", "setting": "[8]; group No. 3 (5 mg/kg tail injection), 3 day, 5 mg/kg", "result": "58.27 and 43.51 and 72.22 and 113.73 and 70.23 and 92.68"}, {"measurement": "tumor volume, average (6 mice)", "setting": "[8]; group No. 3 (5 mg/kg tail injection), 4 day", "result": 74.99}, {"measurement": "tumor volume, individual mice", "setting": "[8]; group No. 3 (5 mg/kg tail injection), 4 day, 5 mg/kg", "result": "79.34 and 40.73 and 83.65 and 123.79 and 36.86 and 84.55"}, {"measurement": "tumor volume, average (6 mice)", "setting": "[8]; group No. 3 (5 mg/kg tail injection), 5 day", "result": 60.45}, {"measurement": "tumor volume, individual mice", "setting": "[8]; group No. 3 (5 mg/kg tail injection), 5 day, 5 mg/kg", "result": "47.44 and 40.65 and 62.95 and 103.32 and 28.95 and 79.20"}, {"measurement": "tumor volume, average (6 mice)", "setting": "[8]; group No. 3 (5 mg/kg tail injection), 6 day", "result": 53.82}, {"measurement": "tumor volume, individual mice", "setting": "[8]; group No. 3 (5 mg/kg tail injection), 6 day, 5 mg/kg", "result": "33.96 and 32.21 and 54.93 and 135.18 and 14.65 and 51.96"}, {"measurement": "tumor volume, average (6 mice)", "setting": "[8]; group No. 3 (5 mg/kg tail injection), 7 day", "result": 64.86}, {"measurement": "tumor volume, individual mice", "setting": "[8]; group No. 3 (5 mg/kg tail injection), 7 day, 5 mg/kg", "result": "34.07 and 36.27 and 86.76 and 129.59 and 17.36 and 85.12"}, {"measurement": "tumor volume, average (6 mice)", "setting": "[8]; group No. 3 (5 mg/kg tail injection), 8 day", "result": 62.63}, {"measurement": "tumor volume, individual mice", "setting": "[8]; group No. 3 (5 mg/kg tail injection), 8 day, 5 mg/kg", "result": "47.99 and 15.80 and 102.87 and 140.33 and 7.22 and 61.54"}]}]}
